# Numbers after ± are expanded uncertainties.
# Assay: not given
# Conditions: Crystal 1; DTA
row,Structure (SMILES),Triple point temperature
1,CCCCCCCCCCCCCCCCO [1-hexadecanol],323.17 ± 0.41 K
2,CCCCCCCCCCCCCCCCCCO [1-octadecanol],331.82 ± 0.49 K
3,CCCCCCCCCCCCCCO [1-tetradecanol],311.39 ± 0.39 K

# The remaining lines, values ahead:
row,Triple point temperature,Structure (SMILES)
1,318.29 ± 0.41 K,CCCCCCCCCCCC(=O)O [dodecanoic acid]
2,328.13 ± 0.48 K,CCCCCCCCCCCCCC(=O)O [tetradecanoic acid]

# Same assay, conditions: Crystal 2; DTA
row,Structure (SMILES),Triple point temperature
1,CCCCCCCCCCCCCCCCO [1-hexadecanol],322.27 ± 0.49 K
2,CCCCCCCCCCCCCCCCCCO [1-octadecanol],330.97 ± 0.39 K
3,CCCCCCCCCCCCCCO [1-tetradecanol],310.45 ± 0.41 K

# Now from value to compound:
row,Triple point temperature,Structure (SMILES)
1,317.9 ± 0.6 K,CCCCCCCCCCCC(=O)O [dodecanoic acid]
2,327.65 ± 0.48 K,CCCCCCCCCCCCCC(=O)O [tetradecanoic acid]

# Same assay, conditions: Crystal; DTA
row,Triple point temperature,Structure (SMILES)
1,336.34 ± 0.63 K,CCCCCCCCCCCCCCCC(=O)O [hexadecanoic acid]

# Assay: Molar enthalpy of transition or fusion
# Conditions: Crystal 2; DSC
row,Structure (SMILES),Molar enthalpy of transition or fusion
1,CCCCCCCCCCCCCCCCO [1-hexadecanol],13.5 ± 0.765 kcal/mol
2,CCCCCCCCCCCCCCCCCCO [1-octadecanol],15.6 ± 0.908 kcal/mol
3,CCCCCCCCCCCCCCO [1-tetradecanol],11.4 ± 0.526 kcal/mol

# Second part, the compound after the results:
row,Molar enthalpy of transition or fusion,Structure (SMILES)
1,8.51 ± 0.335 kcal/mol,CCCCCCCCCCCC(=O)O [dodecanoic acid]
2,10.5 ± 0.43 kcal/mol,CCCCCCCCCCCCCC(=O)O [tetradecanoic acid]

# Same assay, conditions: Crystal; DSC
row,Molar enthalpy of transition or fusion,Structure (SMILES)
1,12.7 ± 0.574 kcal/mol,CCCCCCCCCCCCCCCC(=O)O [hexadecanoic acid]

# Reference: the NIST ThermoML archive (doi:10.1016/j.fluid.2014.01.004)
